The record followed here is patent US20250333397A1 (REMIX THERAPEUTICS INC., priority 2021, published 2025).

Like-named read-outs stand apart in the source and are kept apart here.

Holding throughout (assay type): cell-based, human
Assay [1] deals with Target C mRNA. Description: RT-qPCR splicing assay panel, Target C canonical junction (CJ) mRNA. Particulars: Homo sapiens, canonical junction (CJ) mRNA, RT-qPCR panel, Table 4A; read-out: Target C, decrease in CJ mRNA levels, IC50. How it is done: (§1) Compounds described herein were used to modulate RNA transcript abundance in cells. The expression of a target mRNA was measured by detecting the formation of an exon-exon junction in the canonical transcript (CJ). A compound mediated exon-inclusion event was detected by observing an increase in formation of a new junction with an alternative exon (AJ). Real-time qPCR assays were used to detect these splicing switches and interrogate the potency of various compounds towards different target genes. A high-throughput real time quantitative PCR (RT-qPCR) assay was developed to measure these two isoforms of the mRNA (CJ and AJ) for exemplary genes, such as HTT, SMN2, and MYB, together with a control housekeeping gene, GAPDH or GUSB or PPIA, used for normalization. Briefly, the A673 or K562 cell line was treated with various compounds described herein (e.g., compounds of Formula (I), (II), (III), (IV)). After treatment, the levels of the HTT, MYB, or SMN2 mRNA targets were determined from each sample of cell lysate by cDNA synthesis followed by qPCR.
(§2) The A673 cell line was cultured in DMEM with 10% FBS. Cells were diluted with full growth media and plated in a 96-well plate (15,000 cells in 100ul media per well). The plate was incubated at 37° C. with 5% CO2 for 24 hours to allow cells to adhere. An 11-point 3-fold serial dilution of the compounds was made in DMSO then diluted in media in an intermediate plate. Compounds were transferred from the intermediate plate to the cell plate with the top dose at a final concentration of 10 uM in the well. Final DMSO concentration was kept at or below 0.25%. The cell plate was returned to the incubator at 37° C. with 5% CO2 for an additional 24 hours.
(§3) The K562 cell line was cultured in IMDM with 10% FBS. For K562, cells were diluted with full growth media and plated in either a 96-well plate (50,000 cells in 50 uL media per well) or a 384-well plate (8,000-40,000 cells in 45 uL media per well). An 11-point 3-fold serial dilution of the compounds were made in DMSO then diluted in media in an intermediate plate.
(§4) Compound was transferred from the intermediate plate to the cell plate with the top dose at a final concentration of 10 uM in the well. Final DMSO concentration was kept at or below 0.25%.
(§5) Final volume was 100 uL for 96-well plate and 50 uL for 384-well plate. The cell plate was then placed in an incubator at 37° C. with 5% CO2 for 24 hours.
(§6) The cells were then gently washed with 50 uL-100 uL cold PBS before proceeding to addition of lysis buffer. 30 uL-50 μL of room temperature lysis buffer with DNAse I (and optionally RNAsin) was added to each well. Cells were shaken/mixed thoroughly at room temperature for 5-10 minutes for lysis to take place and then 3 uL-5 μL of room temperature stop solution was added and wells were shaken/mixed again. After 2-5 minutes, the cell lysate plate was transferred to ice for RT-qPCR reaction setup. The lysates could also be frozen at −80° C. for later use.
(§7) In some cases, a direct lysis buffer was used. An appropriate volume of 3× lysis buffer (10 mM Tris, 150 mM NaCl, 1.5%-2.5% Igepal and 0.1-1 U/uL RNAsin, pH 7.4) was directly added to either K562 or A673 cells in media and mixed by pipetting 3 times. The plates were then incubated at room temperature with shaking/rocking for 20-50 minutes to allow for lysis to take place. After this time, the cell lysate plate was transferred to ice to set up for the RT-qPCR reactions. The lysates could also be frozen at −80° C. for later use.
(§8) To set up 10 uL RT-qPCR reactions, cell lysates were transferred to 384-well qPCR plates containing the master mix according to the table below. The plates were sealed, gently vortexed, and spun down before the run. The volumes were adjusted accordingly in some instances where the reaction was carried in 20 μL. The table below summarizes the components of the RT-qPCR reactions: […]
Background: Quantitative PCR measures a nucleic acid by following its amplification.

Assay [2] relates to HTT mRNA. Description: RT-qPCR splicing assay, HTT canonical (CJ) and alternative (AJ) junction mRNA. As to conditions: Homo sapiens; for AC50: read-out: HTT AJ (AC50, increase in AJ mRNA). The protocol:
as §1, §2, §3, §4, §5, §6, §7, §8

For assay [3], the system named is SMN2 mRNA. Put plainly: RT-qPCR splicing assay panel, SMN2 canonical junction (CJ) mRNA. Particulars: Homo sapiens, canonical junction (CJ) mRNA, RT-qPCR panel, Table 4A; read-out: SMN2, decrease in CJ mRNA levels, IC50. How it is done: as §1, §2, §3, §4, §5, §6, §7, §8
Assay [4] deals with MYB mRNA. Description: RT-qPCR splicing assay, MYB canonical (CJ) and alternative (AJ) junction mRNA. As to conditions: Homo sapiens; for AC50: read-out: MYB AJ (AC50, increase in AJ mRNA). How it is done:
as §1, §2, §3, §4, §5, §6, §7, §8

Where [5] appears, read: 24 h, Table 3A, A673 or K562 cells, 24 h treatment.
Setting [6] is: 24 h, Table 3A, A673 or K562 cells, 24 h treatment, read-out: HTT CJ (IC50, decrease in CJ mRNA).
Where [7] appears, read: canonical junction (CJ) mRNA, RT-qPCR panel, Table 4A, read-out: HTT, decrease in CJ mRNA levels, IC50.
Setting [8] is: 24 h, Table 3A, A673 or K562 cells, 24 h treatment, read-out: MYB CJ (IC50, decrease in CJ mRNA).
Where [9] appears, read: canonical junction (CJ) mRNA, RT-qPCR panel, Table 4A, read-out: MYB, decrease in CJ mRNA levels, IC50.

Turning to `CN(C1CCC1)[C@@H]1CCN(c2ccc(-c3ccc(-c4cn[nH]c4)cc3O)nn2)C1` [Compound 296, 2-{6-[(3R)-3-[cyclobutyl(methyl)amino]pyrrolidin-1-yl]pyridazin-3-yl}-5-(1H-pyrazol-4-yl)phenol], the IC50 in assay [1] is 0.1 to 1 µM; in assay [2] (setting [6]), 0.1 to 1 µM; in assay [2] (setting [7]) it was 0.1 to 1 µM; in assay [3], under 0.1 µM; in assay [4] (setting [8]), 0.1 to 1 µM; in assay [4] (setting [9]), 0.1 to 1 µM. In addition, the AC50 in assay [2] (setting [5]) and in assay [4] (setting [5]) was 0.1 to 1 µM in each case.

As to `Oc1cc(-c2cnn3c2CCC3)c(F)cc1-c1ccc(N2CCC(NC3CCC3)C2)nn1` (stereo not drawn) [Compound 443], the IC50 in assay [1] is over 10 µM; in assay [2] (setting [6]), 1 to 10 µM; in assay [2] (setting [7]) it was 1 to 10 µM; in assay [3], 1 to 10 µM; in assay [4] (setting [8]), over 10 µM; in assay [4] (setting [9]), over 10 µM. The AC50 was 1 to 10 µM in assay [2] (setting [5]) and over 10 µM in assay [4] (setting [5]).

For the compound `COc1cc(-c2ccc(-c3ccc(N4CC[C@H](NC5CC5)C4)nn3)c(O)c2)cnn1` [Compound 215, 2-{6-[(3S)-3-(cyclopropylamino)pyrrolidin-1-yl]pyridazin-3-yl}-5-(6-methoxypyridazin-4-yl)phenol], the IC50 was 0.1 to 1 µM in assay [1]; under 0.1 µM in assay [2] (setting [6]); under 0.1 µM in assay [2] (setting [7]); under 0.1 µM in assay [3]; 0.1 to 1 µM in assay [4] (setting [8]); 0.1 to 1 µM in assay [4] (setting [9]). Further, the results for the AC50 in assay [2] (setting [5]) and in assay [4] (setting [5]) were under 0.1 µM and 0.1 to 1 µM, respectively.

Turning to `Cc1ncc(-c2ccc(-c3ccc(N4CCC(NC5CCC5)C4)nn3)cc2F)s1` (stereo not drawn) [Compound 344], the IC50 was 1 to 10 µM in assay [1]; 1 to 10 µM in assay [2] (setting [6]); 1 to 10 µM in assay [2] (setting [7]); 0.1 to 1 µM in assay [3]; 1 to 10 µM in assay [4] (setting [8]); 1 to 10 µM in assay [4] (setting [9]). Moreover, the AC50 in assay [2] (setting [5]) and in assay [4] (setting [5]) was 1 to 10 µM each time.

On to `Cc1ncc(-c2cc(O)c(-c3ccc(N4CC[C@H](N[C@H](C)C5CC5)C4)nn3)cc2F)s1` [Compound 372], for which the IC50 in assay [1], in assay [2] (setting [6]), in assay [2] (setting [7]), in assay [3], in assay [4] (setting [8]) and in assay [4] (setting [9]) was under 0.1 µM each time. For the same compound, the AC50 in assay [2] (setting [5]) and in assay [4] (setting [5]) was under 0.1 µM each time.

`COc1cncc(-c2cc(O)c(-c3ccc(N4CC[C@@H](NC5CCC5)C4)nn3)cc2F)c1` [Compound 225, 2-{6-[(3R)-3-(cyclobutylamino)pyrrolidin-1-yl]pyridazin-3-yl}-4-fluoro-5-(5-methoxypyridin-3-yl)phenol]: the IC50 in assay [1], in assay [2] (setting [6]), in assay [2] (setting [7]), in assay [3], in assay [4] (setting [8]) and in assay [4] (setting [9]) was over 10 µM each time. In addition, the AC50 in assay [2] (setting [5]) and in assay [4] (setting [5]) was over 10 µM throughout.

For `COc1cc(-c2ccc(-c3ccc(N4CCC(CNC5CCC5)C4)nn3)c(O)c2)cnn1` (stereo in doubt) [Compound 441, 2-{6-[(3S)-3-[(cyclobutylamino)methyl]pyrrolidin-1-yl]pyridazin-3-yl}-5-(6-methoxypyridazin-4-yl)phenol], the IC50 in assay [1] is 0.1 to 1 µM; in assay [2] (setting [6]), 0.1 to 1 µM; in assay [2] (setting [7]), 0.1 to 1 µM; in assay [3], under 0.1 µM; in assay [4] (setting [8]), 0.1 to 1 µM; in assay [4] (setting [9]) it was 0.1 to 1 µM. Further, the AC50 in assay [2] (setting [5]) and in assay [4] (setting [5]) was 0.1 to 1 µM throughout.

Regarding `Cc1ncc(-c2cc(O)c(-c3ccc(N4CCC(NC5CCCC5)C4)nn3)cc2F)s1` (stereo not drawn) [Compound 391], the IC50 in assay [1], in assay [2] (setting [6]), in assay [2] (setting [7]), in assay [3], in assay [4] (setting [8]) and in assay [4] (setting [9]) was under 0.1 µM each time. For the same compound, the AC50 was under 0.1 µM in assay [2] (setting [5]) and 0.1 to 1 µM in assay [4] (setting [5]).

For `COc1cc(-c2ccc(-c3cc(C#N)c(N4CC[C@H](NC5CCC5)C4)nn3)c(O)c2)cnn1` [Compound 343, 3-[(3S)-3-(cyclobutylamino)pyrrolidin-1-yl]-6-[2-hydroxy-4-(6-methoxypyridazin-4-yl)phenyl]pyridazine-4-carbonitrile], the IC50 in assay [1] was 1 to 10 µM; in assay [2] (setting [6]) it was 0.1 to 1 µM; in assay [2] (setting [7]), 0.1 to 1 µM; in assay [3], 0.1 to 1 µM; in assay [4] (setting [8]), over 10 µM; in assay [4] (setting [9]) it was over 10 µM. For the same compound, the AC50 in assay [2] (setting [5]) is 1 to 10 µM; in assay [4] (setting [5]), over 10 µM.

Take `COc1cc(-c2ccc(-c3ccc(N4CCC(NC56CC(C5)C6)C4)nn3)c(O)c2)cnn1` (stereo not drawn) [Compound 335, 2-[6-(3-{bicyclo[1.1.1]pentan-1-ylamino}pyrrolidin-1-yl)pyridazin-3-yl]-5-(6-methoxypyridazin-4-yl)phenol]: the IC50 in assay [1] was 0.1 to 1 µM; in assay [2] (setting [6]) it was under 0.1 µM; in assay [2] (setting [7]) it was under 0.1 µM; in assay [3], 0.1 to 1 µM; in assay [4] (setting [8]), 0.1 to 1 µM; in assay [4] (setting [9]) it was 0.1 to 1 µM. The AC50 lay within 0.1 to 1 µM in assay [2] (setting [5]) and 1 to 10 µM in assay [4] (setting [5]).

For `Cc1ncc(-c2cc(O)c(-c3ccc(N4CC[C@@H](NC5CCC5)C4)nn3)cc2F)s1` [Compound 146, 2-{6-[(3R)-3-(cyclobutylamino)pyrrolidin-1-yl]pyridazin-3-yl}-4-fluoro-5-(2-methyl-1,3-thiazol-5-yl)phenol], the IC50 in assay [1], in assay [2] (setting [6]), in assay [2] (setting [7]), in assay [3], in assay [4] (setting [8]) and in assay [4] (setting [9]) was under 0.1 µM in each case. In addition, the AC50 in assay [2] (setting [5]) and in assay [4] (setting [5]) was under 0.1 µM in each case.

As for `Oc1cc(-c2cn[nH]c2)ccc1-c1ccc(N2CC[C@H](NC3CC3)C2)nn1` [Compound 104, 2-{6-[(3S)-3-(cyclopropylamino)pyrrolidin-1-yl]pyridazin-3-yl}-5-(1H-pyrazol-4-yl)phenol; ethane], the IC50 is 0.1 to 1 µM in assay [1]; under 0.1 µM in assay [2] (setting [6]); under 0.1 µM in assay [2] (setting [7]); under 0.1 µM in assay [3]; 0.1 to 1 µM in assay [4] (setting [8]); 0.1 to 1 µM in assay [4] (setting [9]). Moreover, the AC50 in assay [2] (setting [5]) was under 0.1 µM; in assay [4] (setting [5]) it was 0.1 to 1 µM.

As a reminder, the IC50 is the concentration needed to halve the response being measured. What is called AC50 is the concentration giving half of the maximal activity seen.
